From ChEMBL document CHEMBL4190382, “Targeting lysine specific demethylase 4A (KDM4A) tandem TUDOR domain - A fragment based approach” (Bioorg Med Chem Lett, 2018)
Activity calls are given as the source filed them. The calls are words filed in the database; no cut-off is given here.

Test system: T1, Lysine-specific demethylase 4A (Homo sapiens), O75164 [Y973A]
T1 sequence (whole entry): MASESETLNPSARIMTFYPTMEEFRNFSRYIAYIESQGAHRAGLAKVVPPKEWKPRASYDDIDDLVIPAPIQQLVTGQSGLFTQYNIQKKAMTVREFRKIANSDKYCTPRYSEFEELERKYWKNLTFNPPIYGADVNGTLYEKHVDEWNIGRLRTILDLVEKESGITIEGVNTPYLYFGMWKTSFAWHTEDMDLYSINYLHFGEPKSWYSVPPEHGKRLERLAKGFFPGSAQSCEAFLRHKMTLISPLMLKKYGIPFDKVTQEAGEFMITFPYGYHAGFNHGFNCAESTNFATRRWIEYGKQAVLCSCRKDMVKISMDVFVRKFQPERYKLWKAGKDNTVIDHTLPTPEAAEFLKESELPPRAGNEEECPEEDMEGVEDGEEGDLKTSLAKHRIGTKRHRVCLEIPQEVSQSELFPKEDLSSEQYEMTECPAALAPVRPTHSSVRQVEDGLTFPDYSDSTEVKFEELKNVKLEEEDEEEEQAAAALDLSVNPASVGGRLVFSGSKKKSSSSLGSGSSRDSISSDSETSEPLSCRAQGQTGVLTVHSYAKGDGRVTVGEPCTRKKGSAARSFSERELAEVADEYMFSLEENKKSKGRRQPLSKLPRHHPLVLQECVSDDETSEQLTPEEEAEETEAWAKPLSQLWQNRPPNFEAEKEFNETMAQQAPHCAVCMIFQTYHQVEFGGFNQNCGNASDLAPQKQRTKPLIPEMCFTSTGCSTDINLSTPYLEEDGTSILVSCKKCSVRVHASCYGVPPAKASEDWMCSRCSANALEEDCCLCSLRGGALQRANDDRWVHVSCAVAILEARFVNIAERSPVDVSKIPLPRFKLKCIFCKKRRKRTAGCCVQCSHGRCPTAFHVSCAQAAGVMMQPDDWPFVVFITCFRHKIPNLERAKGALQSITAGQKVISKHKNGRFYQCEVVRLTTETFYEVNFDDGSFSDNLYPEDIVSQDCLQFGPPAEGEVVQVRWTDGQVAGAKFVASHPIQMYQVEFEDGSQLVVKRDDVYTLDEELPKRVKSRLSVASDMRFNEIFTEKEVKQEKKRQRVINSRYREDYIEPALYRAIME
Experiment: Binding affinity to thrombin cleavable N-terminal 6His tagged and 13C-IVLM labeled human KDM4A tandem TUDOR domain (897 to 1011 residues) Y973A mutant expressed in Escherichia coli BL21(DE3)-T1R by ITC method

Activity: inactive
Compound: CN(C)C[C@H]1C2CCC(c3ccccc3)(C2)[C@H]1O (stereo partly specified)
